Results as given in US5859025A, “Fluoroalkyl- and fluoroalkoxy-substituted heterocyclic bradykinin antagonists, process for their preparation, and their use” (Hoechst Aktiengesellschaft, priority 1996, dated 1999).

Tests used:
[1] = system: bradykinin-induced contraction of the guinea-pig ileum; assay: antagonist action on the bradykinin-induced contraction of the guinea-pig ileum; assay type: cell-based; conditions: Cavia porcellus, 10 min; isolated guinea-pig ileum, bradykinin 4×10^-8 mol/l, time of action 10 min, 37° C.
Procedure: The determinations of the antagonist action on the bradykinin-induced contraction of the guinea-pig ileum were carried out according to the following protocol:
Guinea-pigs weighing about 300 g (Morioth strain,--) are killed by a blow to the neck and exsanguinated. The ileum is dissected out in a length of about 20 cm, rinsed with Tyrode solution (Record syringe) and thus freed of intestinal contents. It is then divided into sections 1.5 cm long. These are fixed in organ baths of capacity 10 ml, which are filled with Tyrode solution, and connected to extension-measuring strips (isometric contraction measurement). The preload is 1 g. The Tyrode solution is warmed to 37° C. in a water bath and bubbled through with compressed air. After an interval of 30 min. the experiment is begun. After recording the biological zero line, bradykinin at a final concentration of 4×10^-8 mol/l per organ bath is added and the […] is recorded. The organ bath is then rinsed for 3 min with Tyrode solution and, after a break of 20 min., bradykinin is added again. The maximum of the contraction is achieved (control). Rinse again, break. The bradykinin antagonist is then added (time of action 10 min). Bradykinin is then added again and the ensuing contraction is compared with that of the control. The experiment is recorded on a pen recorder. […]
______________________________________ […]

[2] = system: bradykinin contraction of the isolated rabbit jugular vein; assay: in-vitro duration of action on the isolated rabbit jugular (bradykinin-induced contraction); assay type: cell-based, rabbit (white New Zealand); conditions: for inhibition at 10 µM: Oryctolagus cuniculus, 0.25 h, time 15 min, test substance (10^-5 M) present in bath, bradykinin 10^-7 M; for inhibition at 10 µM / Inhibition of the bradykinin contraction in %: mean, n=6; for Inhibition of the bradykinin contraction in %: after rinsing (test substance 10^-5 M no longer in bath); for inhibition after 4 h (in words): test substance 10^-5 M
Procedure: The compounds of Examples 1, X and Y were compared. Examples X and Y are described in EP-A 622 361.
Comparison of the in-vitro duration of action of heterocyclic bradykinin antagonists on the isolated rabbit jugular
Male rabbits (white New Zealand, breeder: Mollegaard, Denmark, 2.5-3.0 kg) are killed by injection of an overdose of Pentobarbital-Na (1 ml of Narcoren®+0.5 ml of heparin). The two jugular veins are exposed, cut spirally and pieces of about 1.5 cm length are suspended in buffered organ baths (Krebs-Henseleit buffer) at a pretension of 0.5 g.
After a rest period of 30 min, contractions are induced by addition of bradykinin (10^-7 M), which serve as the starting value. Test substances are then added at a concentration of 10^-5 M. The inhibitory values shown are mean values (n=6). […] The bradykinin contraction is then ended by rinsing with just buffer solution.
At each further time shown, stimulation was again carried out with bradykinin (in the absence of the test substance in the bath fluid) and at the end of the contraction the bath fluid was replaced by just buffer solution.

bradykinin B2 receptor = target: T1, bradykinin B2 receptor (Cavia porcellus, UniProt O70526); assay: binding to the bradykinin B2 receptor of the guinea-pig ileum (3H-bradykinin competition); conditions: 3H-bradykinin 0.25 to 0.3 nmol/l, guinea-pig ileum membranes; for Ki: LIGAND program; for IC50: room temperature, 60 minutes
T1 construct: The guinea-pig ilea are roughly freed of the intestinal contents by careful stripping; from tissue; host or cells: guinea-pig ileum, membrane preparation
T1 sequence (O70526 1-372): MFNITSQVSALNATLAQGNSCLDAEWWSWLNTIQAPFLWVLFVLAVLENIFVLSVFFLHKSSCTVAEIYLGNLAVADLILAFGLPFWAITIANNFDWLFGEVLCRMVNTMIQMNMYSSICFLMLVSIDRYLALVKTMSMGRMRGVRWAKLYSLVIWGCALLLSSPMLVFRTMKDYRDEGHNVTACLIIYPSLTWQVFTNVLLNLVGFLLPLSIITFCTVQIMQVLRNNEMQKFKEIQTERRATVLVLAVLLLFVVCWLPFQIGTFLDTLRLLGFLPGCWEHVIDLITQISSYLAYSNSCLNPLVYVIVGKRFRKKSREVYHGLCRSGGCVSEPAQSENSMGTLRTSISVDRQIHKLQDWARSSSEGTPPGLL
Procedure: The measurement of the binding to the bradykinin B2 receptor of the guinea-pig ileum is described in the following (R. B. Innis et al., Proc. Natl. Acad. Sci. USA; 17 (1981) 2630): […]
25 mM TES (SIGMA, Order No: T-4152)
1 mM 1,10-phenanthroline (SIGMA; Order No: P-9375)
25 mM TES (SIGMA; Order No.: T-4152)
1 mM 1,10-phenanthroline (SIGMA; Order No.: P-9375)
0,1% albumin, bovine (SIGMA; Order No.: A-7906)
140 mg/ml bacitracin (SIGMA; Order No.: B-0125)
1 mM dithiothreitol (SIGMA; Order No.: D-0632)
1 mM captopril® 1-[(2S)-3-mercapto-2-methylpropionyl]-L-proline
Both buffers are adjusted to pH 6.8 using 5 molar NaOH.
The guinea-pig ilea are roughly freed of the intestinal contents by careful stripping and cleaned in 0.9% strength NaCl solution. The pieces of ilea, which are about 2 cm long, are transferred to ice-cold TES buffer (about 1 g/10 ml) and homogenized in an ice-bath for 30 sec. using an Ultraturrax. The homogenate is then filtered through 3 layers of gauze and the filtrate is centrifuged at 50,000 g for 10 minutes. The supernatant is discarded, and the pellet is rehomogenized in the same volume of TES buffer and centrifuged again at 50,000 g for 10 minutes. The pellet is rehomogenized in incubation buffer (about 1 g/5 ml) and frozen at -70° C. in cryotubes, divided into 2 ml portions.
The protein concentration of the ready-to-use membrane suspension is determined according to LOWRY and should be about 15 mg/100 ml.
All incubations are carried out at room temperature for 60 minutes on microtiter plates (96×300 ml) in 200 ml volumes. All mixtures in incubation buffer. To this end, 50 ml of the radioligand, 50 ml of the preparation to be tested and 100 ml of the membrane suspension are pipetted successively into the depressions of the microtiter plate. […]
a) Saturation Experiments (hot saturation)
Preparation of the ^3 H-bradykinin solution: For the saturation experiments, the concentrations 0.05, 0.1, 0.2, 0.4, 0.6, 0.8, 1.0, 1.5, 2.0, 2.5 and 3.0 nmol/l are employed, which correspond to 0.05 to 3.0 pmol/ml. After the preparation of the corresponding dilutions, 50 ml each per sample are initially introduced.
Nonspecific binding: For each concentration of the radioactive ligand, the nonspecific binding must be determined. This can be achieved by addition of a high concentration (1-100 mmol) of the unlabeled ligand, other antagonists or agonists of the bradykinin receptor. […] For this, 1.862 mg are dissolved in 1 ml of dimethyl sulfoxide (DMSO), diluted 1:25 with incubation buffer and 50 ml of this solution are added to the samples in the microtiter plates. The reaction is started by the addition of […] of the membrane suspension. […]
b) Competition Experiments (IC50)
Here a fixed quantity of the radioactive ligand (0.25 to 0.3 nmol/l of ^3 H-bradykinin) and various concentrations of the unlabeled agonists or antagonists are employed. 50 ml of the preparations or standards to be tested in the concentrations 10^-5 to 10^-10 mol/l are added to in each case 50 ml of the ^3 H-bradykinin solution and the reaction is started by addition of […] of membrane suspension. In this test too, triplicate determinations are carried out and three samples are incubated with […] of HOE 140 to determine the nonspecific binding.
The preparations to be tested for competition are always dissolved at a concentration of 1 mmol/l in dimethyl sulfoxide (DMSO), and then further diluted with DMSO. This solution is then diluted 1:25 with incubation buffer.
After incubation, the samples are filtered off in a Skatron cell harvester through a Whatmann GF/B filter previously moistened with 0.1% PEI (polyethylenimine) and washed with 10 ml of ice-cold TES buffer per sample. The still moist filters are punched out into mini-scintillation tubes and the tubes are filled with 3 ml of scintillator. After about 12 hours soaking time, the samples are briefly shaken and measured in a beta counter. […]

Ki (bradykinin B2 receptor) | IC50 (bradykinin B2 receptor) | SMILES | inhibition at 10 µM [2] | Inhibition of the bradykinin contraction in % ([2]; time 210 min) | Inhibition of the bradykinin contraction in % ([2]; time 240 min) | also measured
1 nM | 9 nM | Cc1ccc2cccc(OCc3c(Cl)ccc(N(C)C(=O)CNC(=O)/C=C/c4ccc(C(F)(F)F)cc4)c3Cl)c2n1 [Example 1, 8-[3-(N-(4-trans-Trifluoromethylcinnamoylglycyl)-N-methylamino)-2,6-dichlorobenzyloxy]-2-methylquinoline] | 98% | 95% | 92% | IC50 [1]: 44 nM; in-vitro duration of action (in words) ([2]; isolated rabbit jugular, compared with Examples Y and X): distinctly longer in-vitro duration of action; Inhibition of the bradykinin contraction in % ([2]; time 30 min, bradykinin): 99%; Inhibition of the bradykinin contraction in % ([2]; time 60 min): 99%; Inhibition of the bradykinin contraction in % ([2]; time 270 min): 87%; Inhibition of the bradykinin contraction in % ([2]; time 300 min): 78%; Inhibition of the bradykinin contraction in % ([2]; time 330 min): 71%; Inhibition of the bradykinin contraction in % ([2]; time 360 min (6 h)): 68%
4 nM | 40 nM | Cc1ccc2c(C)ccc(OCc3c(Cl)ccc(N(C)C(=O)CNC(=O)/C=C/c4ccc(C(F)(F)F)cc4)c3Cl)c2n1 [Example 2] | – | – | – | IC50 [1]: 1500 nM
3.4 nM | 28 nM | Cc1ccc2cccc(OCc3c(Cl)ccc(N(C)C(=O)CNC(=O)Cc4ccc(C(F)(F)F)cc4)c3Cl)c2n1 [Example 8] | – | – | – | –
10 nM | 95 nM | Cc1ccc2cccc(OCc3c(Cl)ccc(N(C)C(=O)CNC(=O)OCc4ccc(OC(F)(F)F)cc4)c3Cl)c2n1 [Example 22] | – | – | – | –
5.1 nM | 38 nM | Cc1ccc2cccc(OCc3c(Cl)ccc(N(C)C(=O)CNC(=S)Nc4cccc(C(F)(F)F)c4)c3Cl)c2n1 [Example 29, 8-[3-N-(3-Trifluoromethylphenylthioureidoacetyl-N-methylamino)-2,6-dichlorobenzyloxy]-2-methylquinoline] | – | – | – | –
– | – | Cc1ccc(/C=C/C(=O)NCC(=O)N(C)c2ccc(Cl)c(COc3cccc4ccc(C)nc34)c2Cl)cc1 [Example X] | 97% | 58% | 30% | inhibition after 4 h (in words) [2]: no longer show any inhibition; Inhibition of the bradykinin contraction in % ([2]; time 120 min): 95%; Inhibition of the bradykinin contraction in % ([2]; time 150 min): 87%; Inhibition of the bradykinin contraction in % ([2]; time 180 min): 74%
– | – | COc1cccc(/C=C/C(=O)NCC(=O)N(C)c2ccc(Cl)c(COc3cccc4ccc(C)nc34)c2Cl)c1 [Example Y] | 96% | 59% | 31% | inhibition after 4 h (in words) [2]: no longer show any inhibition; Inhibition of the bradykinin contraction in % ([2]; time 30 min, bradykinin): 97%; Inhibition of the bradykinin contraction in % ([2]; time 180 min): 84%; Inhibition of the bradykinin contraction in % ([2]; time 270 min): 3%
